Data from the supplement of paper PMC10307832.

Assays:
Experiment in all cases: relative viability (nuclei count vs DMSO), 5 days (fraction); higher = more cells survive
Linsitinib + Phenformin = compound: C[C@]1(O)C[C@@H](c2nc(-c3ccc4ccc(-c5ccccc5)nc4c3)c3c(N)nccn32)C1 [Linsitinib] + N=C(N)NC(=N)NCCc1ccccc1 [Phenformin] (partner 250 µM)
Summary of the method: (§1)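 Nuclei were stained with Hoechst during a one-step fixation (final 0.05% Triton X-100, 1% formaldehyde, 1 ug/ml Hoechst) carried out 5 days after dosing, then counted on 4× images. The cells, lung cancer lines in 1536-well plates, had been dosed by pin tool the day after seeding with one drug alone or a fixed anchor-drug dose plus five library-drug doses (not always all listed) in √10 steps. Relative viability is the nuclei count in treated wells divided by that in vehicle wells, and each value is the median of duplicate plates.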

Ispinesib + Olaparib = compound: Cc1ccc(C(=O)N(CCCN)[C@@H](c2nc3cc(Cl)ccc3c(=O)n2Cc2ccccc2)C(C)C)cc1 [Ispinesib] + O=C(c1cc(Cc2n[nH]c(=O)c3ccccc23)ccc1F)N1CCN(C(=O)C2CC2)CC1 [Olaparib] (partner 8 µM)
Summary of the method: as §1

Ispinesib + Decitabine = compound: Cc1ccc(C(=O)N(CCCN)[C@@H](c2nc3cc(Cl)ccc3c(=O)n2Cc2ccccc2)C(C)C)cc1 [Ispinesib] + Nc1ncn([C@H]2C[C@H](O)[C@@H](CO)O2)c(=O)n1 [Decitabine] (partner 2 µM)
Summary of the method: as §1

Ispinesib + Luminespib = compound: Cc1ccc(C(=O)N(CCCN)[C@@H](c2nc3cc(Cl)ccc3c(=O)n2Cc2ccccc2)C(C)C)cc1 [Ispinesib] + CCNC(=O)c1noc(-c2cc(C(C)C)c(O)cc2O)c1-c1ccc(CN2CCOCC2)cc1 [Luminespib] (partner 0.01 µM)
Summary of the method: as §1

Row | Cell Line | relative viability (Linsitinib + Phenformin; first compound 0.01 µM) | relative viability (Linsitinib + Phenformin; first compound 0.03162 µM) | relative viability (Linsitinib + Phenformin; first compound 0.1 µM) | relative viability (Linsitinib + Phenformin; first compound 0.3162 µM) | relative viability (Linsitinib + Phenformin; first compound 1 µM) | relative viability (Ispinesib + Olaparib; first compound 0.001 µM) | relative viability (Ispinesib + Olaparib; first compound 0.003162 µM) | relative viability (Ispinesib + Olaparib; first compound 0.01 µM) | relative viability (Ispinesib + Olaparib; first compound 0.03162 µM) | relative viability (Ispinesib + Olaparib; first compound 0.1 µM) | relative viability (Ispinesib + Decitabine; first compound 0.001 µM) | relative viability (Ispinesib + Decitabine; first compound 0.003162 µM) | relative viability (Ispinesib + Decitabine; first compound 0.01 µM) | relative viability (Ispinesib + Decitabine; first compound 0.03162 µM) | relative viability (Ispinesib + Decitabine; first compound 0.1 µM) | relative viability (Ispinesib + Luminespib; first compound 0.001 µM) | relative viability (Ispinesib + Luminespib; first compound 0.003162 µM) | relative viability (Ispinesib + Luminespib; first compound 0.01 µM) | relative viability (Ispinesib + Luminespib; first compound 0.03162 µM) | relative viability (Ispinesib + Luminespib; first compound 0.1 µM)
1 | LU99A | 0.919 | 0.848 | 0.781 | 0.475 | 0.555 | 0.249 | 0.264 | 0.235 | 0.234 | 0.245 | 0.868 | 1.1 | 1.02 | 0.674 | 0.727 | 0.242 | 0.333 | 0.247 | 0.199 | 0.218
2 | LXF-289 | 0.5 | 0.448 | 0.523 |  | 0.471 | 1.07 | 1.21 | 1.44 | 1.05 | 0.95 | 0.359 | 0.388 | 0.387 | 0.404 | 0.349 | 0.622 | 0.794 | 0.743 | 0.556 | 0.617
3 | NCI-H23 | 0.821 | 0.863 | 0.764 | 0.53 | 0.503 | 0.306 | 0.379 | 0.336 | 0.384 | 0.175 | 0.27 | 0.326 | 0.304 | 0.309 | 0.213 | 0.205 | 0.202 | 0.199 | 0.195 | 0.197
4 | NCI-H322M | 0.832 | 0.765 | 0.814 | 0.545 | 0.552 | 0.804 | 0.81 | 0.855 | 0.786 | 0.549 | 0.744 | 0.771 | 0.697 | 0.666 | 0.559 | 0.992 | 0.888 | 0.729 | 0.612 | 0.58
5 | NCI-H358 | 0.304 | 0.273 | 0.306 | 0.228 | 0.207 | 0.624 | 0.671 | 0.761 | 0.569 | 0.214 | 0.187 | 0.205 | 0.213 | 0.109 | 0.139 | 0.424 | 0.435 | 0.549 | 0.405 | 0.259
6 | NCI-H1299 |  |  |  |  |  | 1.02 | 0.993 | 1.07 | 0.986 | 0.478 |  |  |  |  |  |  |  |  |  | 
7 | NCI-H1563 | 0.68 | 0.647 | 0.658 | 0.834 | 0.621 |  |  |  |  |  |  |  |  |  |  | 0.506 | 0.462 | 0.523 | 0.523 | 0.55
8 | NCI-H1623 | 0.628 | 0.618 | 0.581 |  | 0.519 |  |  |  |  |  |  |  |  |  |  | 0.638 | 0.487 | 0.578 | 0.526 | 0.455
9 | NCI-H1648 |  |  |  |  |  | 1.04 | 1.07 | 0.751 | 0.889 | 0.0854 | 0.532 | 0.484 | 0.474 | 0.614 | 0.343 |  |  |  |  | 
10 | NCI-H1703 |  |  |  |  |  | 0.601 | 0.312 | 0.246 | 0.127 | 0.105 |  |  |  |  |  |  |  |  |  | 
11 | NCI-H2228 | 0.307 | 0.397 | 0.325 | 0.273 | 0.278 | 0.857 | 0.717 | 0.543 | 0.418 | 0.327 |  |  |  |  |  | 0.121 | 0.14 | 0.228 | 0.127 | 0.159
